This is an account of results in patent US20180362531A1, “NOVEL KYNUREININE PATHWAY INHIBITORS” (STANDARD LLC, priority 2017, published 2018).

Common to all, as to format: biochemical
One assay concerns the target T1, Human IDO1 His-Tag (Homo sapiens, UniProt P14902).
T1 construct: purchased BPS Bioscience
Put plainly: IDO1 Inhibitor Screening Assay (BPS Bioscience kit, absorption at 321 nm). The settings on record: room temperature, 3 hours; N.D. = Not Detected. How it is done: IDO1 (indoleamine 2,3-dioxygenase-1) catalyzes the oxidative cleavage of the pyrrole ring of tryptophan to yield N′-formylkynurenine. The amount of N′-formylkynurenine product is able to be detected by the absorption at the wavelength of 321 nm. IDO1 inhibitor Screening Assay kit (BPS Bioscience) was used to test the compound. The assay was performed as described in the assay protocol.
IDO1 reaction solution (90 μl) was aliquoted into each well of a 96-well plate. 5 μl of the compound solution in 10% DMSO was added to each well. 5 μl 10% DMSO was added to the positive control and blank wells. Human IDO1 His-Tag was diluted to 40 ng/μl in 1×IDO1 Assay buffer. The reaction was initiated by adding 5 μl of diluted IDO1. In the blank well, only 1×IDO1 assay buffer was added instead. After incubating at room temperature for 3 hours, the absorption was measured at the wavelength of 321 nm using a microplate reader.
The relative activity, I, was the ratio of former to later, i.e. X/Y, expressed in percentile. The IC50 was the concentration of the compounds when X/Y equals 50 and calculated based on the dose-response curve.

For another assay, the target named is T2, Human IDO2 His-Tag (Homo sapiens, UniProt Q6ZQW0).
T2 construct: purchased BPS Bioscience
T2 sequence (Q6ZQW0 1-407): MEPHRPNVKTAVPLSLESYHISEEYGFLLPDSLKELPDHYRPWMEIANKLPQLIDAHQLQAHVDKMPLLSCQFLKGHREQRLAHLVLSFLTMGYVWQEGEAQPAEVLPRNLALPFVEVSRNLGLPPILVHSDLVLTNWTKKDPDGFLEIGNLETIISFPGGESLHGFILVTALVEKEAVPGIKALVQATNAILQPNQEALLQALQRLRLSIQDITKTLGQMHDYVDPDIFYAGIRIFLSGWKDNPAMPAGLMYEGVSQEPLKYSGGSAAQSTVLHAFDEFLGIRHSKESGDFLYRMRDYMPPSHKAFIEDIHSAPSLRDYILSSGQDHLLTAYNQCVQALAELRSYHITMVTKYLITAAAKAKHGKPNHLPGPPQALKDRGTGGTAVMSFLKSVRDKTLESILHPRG
Description: IDO2 Inhibitor Screening Assay (BPS Bioscience kit, absorption at 321 nm). The settings on record: room temperature, 3 hours. How it is done: To evaluate the selectivity of IDO inhibition for Compounds Nos. D42 and D46, an assay to measure activity against IDO2 was performed. The IDO2 Inhibitor Screening Assay kit (BPS Bioscience) was used for IDO2 test. The protocol is similar to IDO1 assay. IDO2 reaction solution (90 μl) was aliquoted into each well of a 96-well plate. 5 μl of compound solution in 10% DMSO was added to each well. 5 μl 10% DMSO was added to the positive control and blank wells. Human IDO2 His-Tag was diluted in 1×IDO2 Assay buffer at 400 ng/μl. The reaction was initiated by adding 5 μl diluted IDO2. 1×IDO2 assay buffer to the blank well. After incubating at room temperature for 3 hours, the absorption was measured at the wavelength of 321 nm. The IC50 was calculated as described for IDO2.
The test compound inhibition was measured as X-fold. The control solution (DMSO) was measured as Y-fold. The relative activity, I, was the ratio of former to later, i.e. X/Y, expressed in percentile. The IC50 was the concentration of the compounds when X/Y equals 50 and calculated based on the dose-response curve.

The target in another assay is T3, Human TDO His-Tag (Homo sapiens, UniProt P48775).
T3 construct: purchased BPS Bioscience
Description: TDO Inhibition Screening Assay (BPS Bioscience kit, absorption at 321 nm). The settings on record: room temperature, 1.5 hours. How it is done: The TDO inhibitor Screening Assay kit (BPS Bioscience) was used to test for TDO inhibition by Compound Nos. D42 and D46. The protocol is similar to IDO1 assay. TDO reaction solution (90 μl) was aliquoted into each well of a 96-well plate. 5 μl of compound solution in 10% DMSO was added to each well. 5 μl 10% DMSO was added to the positive control and blank wells. Human TDO His-Tag was diluted in 1×TDO Assay buffer at 50 ng/μl. The reaction was initiated by adding 5 μl diluted TDO. 1×TDO assay buffer was added to the blank well. After incubating at room temperature for 1.5 hours, the absorption was measured at the wavelength of 321 nm. The IC50 was calculated as described for TDO inhibition. The relative activity and IC50 was calculated as described above in Examples 3 and 4.

T1 sequence (P14902 whole entry): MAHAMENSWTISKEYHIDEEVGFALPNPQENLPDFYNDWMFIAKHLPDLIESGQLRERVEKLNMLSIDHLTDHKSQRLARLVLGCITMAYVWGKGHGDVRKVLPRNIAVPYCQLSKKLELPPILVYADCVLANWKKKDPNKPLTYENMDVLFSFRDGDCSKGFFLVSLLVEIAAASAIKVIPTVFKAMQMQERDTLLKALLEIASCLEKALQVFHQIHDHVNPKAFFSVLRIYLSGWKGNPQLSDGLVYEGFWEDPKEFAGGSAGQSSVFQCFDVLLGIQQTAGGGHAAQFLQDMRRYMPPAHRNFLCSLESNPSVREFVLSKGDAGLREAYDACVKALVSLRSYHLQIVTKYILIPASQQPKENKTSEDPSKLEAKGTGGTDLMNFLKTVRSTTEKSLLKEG
T3 sequence (P48775 whole entry): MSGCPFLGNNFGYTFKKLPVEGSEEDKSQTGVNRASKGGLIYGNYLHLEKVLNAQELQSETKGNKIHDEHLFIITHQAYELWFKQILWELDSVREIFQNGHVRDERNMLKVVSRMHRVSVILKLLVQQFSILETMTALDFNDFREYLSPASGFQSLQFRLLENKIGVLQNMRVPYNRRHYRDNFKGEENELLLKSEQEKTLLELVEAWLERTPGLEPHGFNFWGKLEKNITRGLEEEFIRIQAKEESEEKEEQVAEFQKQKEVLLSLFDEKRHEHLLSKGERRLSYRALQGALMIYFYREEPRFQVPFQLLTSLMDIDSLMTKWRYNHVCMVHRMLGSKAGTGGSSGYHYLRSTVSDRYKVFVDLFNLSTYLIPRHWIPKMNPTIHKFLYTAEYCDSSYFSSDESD

Take `N#Cc1ccc(NC(=O)NCCC2c3ccccc3-c3cncn32)cc1` (stereo not drawn) [D46, 1-(2-(5H-imidazo[5,1-a]isoindol-5-yl)ethyl)-3-(4-cyanophenyl)urea]: the IC50 against Human IDO1 His-Tag is 325 nM; against Human TDO His-Tag it was 0.064 µM. Also, on Human IDO2 His-Tag, the IDO2 inhibition result is “No IDO2 inhibition was detected”.

In the case of `N#Cc1ccc(NC(=O)NCC2c3ccccc3-c3cncn32)cc1` (stereo not drawn) [D42, 1-((5H-imidazo[5,1-a]isoindol-5-yl)methyl)-3-(4-cyanophenyl)urea], the IC50 was 61 nM against Human IDO1 His-Tag and 0.064 µM against Human TDO His-Tag. The IDO2 inhibition result at Human IDO2 His-Tag is given as “No IDO2 inhibition was detected”.

One may read the IC50 as the concentration that gives 50% inhibition.
